According to ChEMBL document CHEMBL1149631, “Synthesis of 3,8,9-trisubstituted-1,7,9-triaza-fluorene-6-carboxylic acid derivatives as a new class of insulin secretagogues” (Bioorg Med Chem, 2007):

What was measured:
Format in all cases: functional
[1] = Effect on glucose-dependent insulin secretion activity per ug of total protein in rat RIN5F cells at 0.1 uM after 30 mins
[2] = Effect on glucose-dependent insulin secretion activity per ug of total protein in rat RIN5F cells at 1 uM after 30 mins
[3] = Effect on glucose-dependent insulin secretion activity per ug of total protein in rat RIN5F cells at 10 uM after 30 mins

| SMILES | Activity [1] [pg/µg/h] | Activity [2] [pg/µg/h] | Activity [3] [pg/µg/h] |
| --- | --- | --- | --- |
| COC(=O)c1cc2c(cn1)[nH]c1ncc(C)cc12 | 13.1 | 13.2 | 13.9 |
| COC(=O)C1Cc2c([nH]c3ncccc23)CN1 (configuration not stated) | 10.1 | 10.6 | 10.9 |
| COC(=O)c1cc2c(cn1)[nH]c1ncccc12 | 11 | 11.9 | 12 |
| COC(=O)c1cc2c([nH]c3ncc(C)cc32)c(C2CCCCC2)n1 | 13.5 | 14 | 14.3 |
| COC(=O)c1cc2c3cc(C)cnc3n(C)c2c(C2CCCCC2)n1 | 14.8 | 15.2 | 15.9 |
| COC(=O)C1Cc2c(n(C)c3ncc(C)cc23)C(C2CCCCC2)N1 (configuration not stated) | 12.4 | 13.4 | 14.2 |
| COC(=O)c1cc2c3cccnc3n(C)c2c(C)n1 | 13.4 | 13.9 | 14.1 |
| COC(=O)C1Cc2c([nH]c3ncc(C)cc23)C(C2CCCCC2)N1 (configuration not stated) | 10.9 | 11.5 | 11.9 |
| O=C(O)c1cc2c([nH]c3ncccc32)c(Cc2ccccc2)n1 | 17.1 | 18.3 | 21.5 |
| COC(=O)c1cc2c([nH]c3ncccc32)c(C2CCCCC2)n1 | 11.9 | 12.1 | 12.5 |
| COC(=O)c1cc2c([nH]c3ncc(C)cc32)c(-c2ccccc2)n1 | 13.9 | 14.2 | 14.9 |
| COC(=O)c1cc2c3cc(C)cnc3n(C)c2cn1 | 14.3 | 14.9 | 15.6 |
| COC(=O)c1cc2c3cccnc3n(C)c2c(Cc2ccccc2)n1 | 14 | 14.6 | 15 |
| Cc1nc(C(=O)O)cc2c3cccnc3n(C)c12 | 16.2 | 18.1 | 21.5 |
| COC(=O)C1Cc2c(n(C)c3ncccc23)C(c2ccccc2)N1 (configuration not stated) | 11 | 11.9 | 12.2 |
| Cc1nc(C(=O)O)cc2c1[nH]c1ncccc12 | 15.4 | 17.4 | 20.1 |
| COC(=O)C1Cc2c([nH]c3ncc(C)cc23)C(C)N1 (configuration not stated) | 10.9 | 11.5 | 11.9 |
| COC(=O)c1cc2c3cc(C)cnc3n(C)c2c(-c2ccccc2)n1 | 15.1 | 15.6 | 16.2 |
| COC(=O)C1Cc2c([nH]c3ncc(C)cc23)C(Cc2ccccc2)N1 (configuration not stated) | 11.5 | 12.2 | 12.9 |
| Cc1cnc2c(c1)c1cc(C(=O)O)ncc1n2C | 17.3 | 20 | 24.2 |
| O=C(O)c1cc2c([nH]c3ncccc32)c(C2CCCCC2)n1 | 15.5 | 17.1 | 20.4 |
| COC(=O)c1cc2c([nH]c3ncccc32)c(Cc2ccccc2)n1 | 12.9 | 13 | 13.5 |
| COC(=O)c1cc2c([nH]c3ncccc32)c(C)n1 | 11 | 12.1 | 12.5 |
| Cc1cnc2[nH]c3c(C4CCCCC4)nc(C(=O)O)cc3c2c1 | 16.3 | 18.4 | 21.2 |
| Cc1cnc2c(c1)c1cc(C(=O)O)nc(-c3ccccc3)c1n2C | 19.1 | 26 | 32.2 |
| Cn1c2cnc(C(=O)O)cc2c2cccnc21 | 15.2 | 17.4 | 19.1 |
| Cn1c2ncccc2c2cc(C(=O)O)nc(Cc3ccccc3)c21 | 18.5 | 19.4 | 22.2 |
| COC(=O)C1Cc2c([nH]c3ncc(C)cc23)CN1 (configuration not stated) | 10.8 | 11.2 | 11.5 |
| COC(=O)c1cc2c([nH]c3ncccc32)c(-c2ccccc2)n1 | 12 | 12.6 | 12.9 |
